Reference: patent US20260151517A1, “SOMATOSTATIN RECEPTOR-TARGETING RADIOPHARMACEUTICALS AND USES THEREOF” (Nuclidium AG, priority 2024, published 2026)
Where two headings read alike, the source gives them in different places. *1 amine or outer side, *2 acyl side, *3 side chain or, on linkers, in order; H or OH if unused. Where a SMILES comes first, the peptide text is derived from it. Bridges are numbered along the chain shown (N, C = ends). [ ]: non-standard residue; d: D form. The star is where a group is joined. NODAGA = O=C(O)CN1CCN(CC(=O)O)CCN(C(CCC(=O)*)C(=O)O)CC1; X1 = NC(=O)Nc1ccc(CC(N[*:1])C(=O)[*:2])cc1; Phe(4-Cl) = N[CH](Cc1ccc(Cl)cc1)C(=O)O

Legend:
Biodistribution studies = assay type: in vivo, mice; conditions: athymic nude Foxn1^nu, mouse, iv, 1 MBq, total radioactivity
Experimental: (§1) The dose of the administered radiopharmaceutical was 1 MBq ([…]) diluted to 100 μL with saline solution. The mice were euthanized at 4 hours post-injection, and the organs of interest were collected, rinsed, blotted, weighed, and analyzed in a gamma counter. The results were expressed as the percentage of injected activity per gram of tissue (% IA/g) and reported as mean±standard deviation in Table 32.

[1] = system: HEK-SST2 xenografted mice; experiment: Biodistribution studies; assay type: in vivo; conditions: 4 hours post-injection, 1 MBq i.v.
Experimental: as §1

in vivo = conditions: athymic nude Foxn1^nu, mouse, total radioactivity
Experimental: Unless otherwise specified, the in vivo studies were performed on athymic nude Foxn1^nu 4-6 weeks-old mice. Animals were injected in the shoulder with HEK-SST2 cells (10^7 cells/200 μL) suspended in PBS. The in vivo experiments were performed when tumors reached a volume between 100-500 mm. At the intervention, all mice were between 7 and 11 weeks old.
The specificity study was performed parallel to pharmacokinetics studies. For this reason, NODAGA-LM3 was radiolabeled with ^64Cu.
The specificity of [^64Cu]Cu-NODAGA-LM3 for SSTR2-expressing tissues was evaluated in HEK-SST2 xenograft mice through a blocking study. The mice were administered with 0.15 MBq of [^64Cu]Cu-NODAGA-LM3 co-injected with a 2000-fold excess of DOTA-LM3 as a blocking agent. The mice were sacrificed 4 hours post-injection, and the organs were collected. weighed, and counted in a gamma counter.

[2] = assay type: physicochemical; conditions: pH 7.4
Experimental: The mixture was vortexed for 30 min and then centrifuged at 3000 rpm to achieve phase separation. Aliquots from each phase were collected and measured in a gamma counter. The distribution coefficient was calculated as the average logarithmic values of the ratio between the radioactivity in the organic and the PBS phase.

[3] = system: well-differentiated BP and GEP neuroendocrine tumors (NET); experiment: Human clinical trial, PET/CT imaging vs [^68Ga]Ga-DOTATOC PET/CT; assay type: in vivo; conditions: Subjects 1-4 and 6
Experimental: The study will be a prospective, open-label, controlled, reader-blind, single center, phase I/II PET/CT study.
The study product will be a single intravenous administration of GMP produced [^61Cu]Cu-NODAGA-LM3 followed by up to three PET/CT acquisitions. [^61Cu]Cu-NODAGA-LM3 will be administered once intravenously at an amount of 20-40 μg (or 13-26 nmol) and an activity range of 150 MBq (±25%).
The control intervention will be [^68Ga]Ga-DOTA-TOC PET/CT (150 MBq (±25%)) (including CE-CT), is acquired as standard of care and not part of the study, but scan results will be used as comparator for the diagnostic efficacy analysis (Phase II).
The diagnostic efficacy analysis (sensitivity, tumor uptake and image contrast (TBR), will be done in comparison with [^68Ga]Ga-DOTA-TOC PET/CT acquired as standard of care in a randomized, cross-over order. Readers of the scans will be blinded for imaging time point, tracers and clinical data and will follow a locked-read methodology. Number of Participants and Rationale: n=27 patients (including 22 patients for the sensitivity analysis powered for both superiority and non-inferiority design and 5 patients with negative [^68Ga]Ga-DOTATOC PET/CT and a positive NETest) […]

CC(O)C1NC(=O)C(CCCCN)NC(=O)C(Cc2ccc(NC(N)=O)cc2)NC(=O)C(Cc2ccc(O)cc2)NC(=O)C(NC(=O)C(Cc2ccc(Cl)cc2)NC(=O)CCC(C(=O)O)N2CCN(CC(=O)O)CCN(CC(=O)O)CC2)CSSCC(C(=O)NC(Cc2ccc(O)cc2)C(N)=O)NC1=O (stereo not shown) [[^61Cu]Cu-NODAGA-LM3, metal not drawn] ({NODAGA}-[Phe(4-Cl)]CY[X1]KTCY-NH2; disulfide 2-7; configuration not given here)
tissue to tissue ratio at 4 h (Biodistribution studies; in vivo, Tumor-to-organ uptake ratio Tumor/Blood): 181
tissue to tissue ratio at 4 h (Biodistribution studies; in vivo, Tumor-to-organ uptake ratio Tumor/Liver): 26
tissue to tissue ratio at 4 h (Biodistribution studies; in vivo, Tumor-to-organ uptake ratio Tumor/Muscles): 185
tissue to tissue ratio at 4 h (Biodistribution studies; in vivo, Tumor-to-organ uptake ratio Tumor/Pituitary): 5.3
tissue uptake at 4 h (Biodistribution studies; in vivo, Uptake [% IA/g] Adrenal): 0.61 ± 0.18 %ID/g
tissue uptake at 4 h (Biodistribution studies; in vivo, Uptake [% IA/g] Blood): 0.11 ± 0.01 %ID/g
tissue uptake at 4 h (Biodistribution studies; in vivo, Uptake [% IA/g] Bone): 0.42 ± 0.12 %ID/g
tissue uptake at 4 h (Biodistribution studies; in vivo, Uptake [% IA/g] HEK-STT2-tumor): 19 ± 2.1 %ID/g
tissue uptake at 4 h (Biodistribution studies; in vivo, Uptake [% IA/g] Heart): 0.17 ± 0.02 %ID/g
tissue uptake at 4 h (Biodistribution studies; in vivo, Uptake [% IA/g] Intestine): 0.58 ± 0.12 %ID/g
tissue uptake at 4 h (Biodistribution studies; in vivo, Uptake [% IA/g] Liver): 0.73 ± 0.06 %ID/g
tissue uptake at 4 h (Biodistribution studies; in vivo, Uptake [% IA/g] Lung): 0.42 ± 0.05 %ID/g
tissue uptake at 4 h (Biodistribution studies; in vivo, Uptake [% IA/g] Muscle): 0.1 ± 0.02 %ID/g
tissue uptake at 4 h (Biodistribution studies; in vivo, Uptake [% IA/g] Pancreas): 0.44 ± 0.24 %ID/g
tissue uptake at 4 h (Biodistribution studies; in vivo, Uptake [% IA/g] Pituitary): 3.64 ± 0.31 %ID/g
tissue uptake at 4 h (Biodistribution studies; in vivo, Uptake [% IA/g] Spleen): 0.18 ± 0.02 %ID/g
tissue uptake at 4 h (Biodistribution studies; in vivo, Uptake [% IA/g] Stomach): 0.79 ± 0.13 %ID/g
tissue uptake at 4 h (Biodistribution studies; kidneys, 4 hours post-injection, 1 MBq i.v., read-out: Uptake [% IA/g] Kidneys): 3.87 ± 0.51 %ID/g
tissue to tissue ratio at 4 h (Biodistribution studies; tumor / all organs except kidneys, 4 hours post-injection, read-out: tumor-to-organ uptake ratio, all the organs except for kidneys): > 5
tissue to tissue ratio at 4 h (Biodistribution studies; tumor/kidney, 4 hours post-injection, read-out: Tumor-to-organ uptake ratio Tumor/Kidney): 4.9
Uptake [% IA/g] Kidneys [1]: 3.87±0.51 % IA/g
tissue uptake at 4 h (in vivo; 0.15 MBq, Uptake Bone): 0.39 ± 0.07 %ID/g
tissue uptake at 4 h (in vivo; 0.15 MBq, Uptake Pancreas): 0.55 ± 0.1 %ID/g
tissue uptake at 4 h (in vivo; 0.15 MBq, Uptake Stomach): 1.31 ± 0.55 %ID/g
tissue uptake at 4 h (in vivo; 0.15 MBq, Uptake Tumor): 37.9 ± 3.43 %ID/g
tissue uptake at 4 h (in vivo; Uptake Blood): 0.11 ± 0.05 %ID/g
tissue uptake at 4 h (in vivo; Uptake Bone): 0.01 ± 0.01 %ID/g
tissue uptake at 4 h (in vivo; Uptake Heart): 0.14 ± 0.07 %ID/g
tissue uptake at 4 h (in vivo; Uptake Intestine): 0.46 ± 0.01 %ID/g
tissue uptake at 4 h (in vivo; Uptake Kidney): 3.52 ± 0.93 %ID/g
tissue uptake at 4 h (in vivo; Uptake Liver): 0.96 ± 0.14 %ID/g
tissue uptake at 4 h (in vivo; Uptake Lung): 0.67 ± 0.25 %ID/g
tissue uptake at 4 h (in vivo; Uptake Muscle): 0.03 ± 0.01 %ID/g
tissue uptake at 4 h (in vivo; Uptake Pancreas): 0.12 ± 0.03 %ID/g
tissue uptake at 4 h (in vivo; Uptake Spleen): 0.21 ± 0.06 %ID/g
tissue uptake at 4 h (in vivo; Uptake Stomach): 0.43 ± 0.14 %ID/g
tissue uptake at 4 h (in vivo; Uptake Tumor): 0.52 ± 0.18 %ID/g
tissue uptake at 4 h (in vivo; female, iv, 0.15 MBq, Uptake Intestine): 0.46 ± 0.04 %ID/g
tissue uptake at 4 h (in vivo; female, iv, 0.15 MBq, Uptake Kidney): 4.41 ± 0.74 %ID/g
tissue uptake at 4 h (in vivo; female, iv, 0.15 MBq, Uptake Lung): 0.6 ± 0.17 %ID/g
tissue uptake at 4 h (in vivo; female, iv, 0.15 MBq, Uptake Spleen): 0.21 ± 0.1 %ID/g
logD [2]: -2.95 ± 0.08
physiological uptake in the liver, spleen, and GI tract [3]: very low physiological uptake
